Data published in PubChem BioAssay (NCI).
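A five-concentration, 48-hour dose response in 96-well plates underlies each endpoint, interpolated linearly between surrounding concentrations. TGI marks complete inhibition of growth.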

How the values were obtained:
Assay in all cases: DTP human tumour cell line panel, 48 h
SF-539 CNS = test system: SF-539 CNS
A549 NSCLC = test system: A549 NSCLC
TK-10 renal = test system: TK-10 renal
U251 CNS = test system: U251 CNS
NCI-H226 lung = test system: NCI-H226 lung
HOP-62 NSCLC = test system: HOP-62 NSCLC
UO-31 renal = test system: UO-31 renal
RXF 393 renal = test system: RXF 393 renal
OVCAR-5 ovarian = test system: OVCAR-5 ovarian
MOLT-4 leukemia = test system: MOLT-4 leukemia
HCT-15 colon = test system: HCT-15 colon
UACC-62 melanoma = test system: UACC-62 melanoma
IGROV1 ovarian = test system: IGROV1 ovarian
786-0 renal = test system: 786-0 renal
MCF7 breast = test system: MCF7 breast
MDA-MB-435 = test system: MDA-MB-435
NCI-H460 lung = test system: NCI-H460 lung
MALME-3M melanoma = test system: MALME-3M melanoma
SR leukemia = test system: SR leukemia
OVCAR-3 ovarian = test system: OVCAR-3 ovarian
SK-MEL-2 melanoma = test system: SK-MEL-2 melanoma
CAKI-1 renal = test system: CAKI-1 renal
NCI-H522 lung = test system: NCI-H522 lung
UACC-257 melanoma = test system: UACC-257 melanoma
HOP-92 NSCLC = test system: HOP-92 NSCLC
NCI-H23 lung = test system: NCI-H23 lung
M14 melanoma = test system: M14 melanoma
SF-268 CNS = test system: SF-268 CNS
HT29 colon = test system: HT29 colon
SK-MEL-28 melanoma = test system: SK-MEL-28 melanoma
KM12 colon = test system: KM12 colon
SF-295 CNS = test system: SF-295 CNS
SK-MEL-5 melanoma = test system: SK-MEL-5 melanoma
MDA-MB-231 breast = test system: MDA-MB-231 breast
A498 renal = test system: A498 renal
SW-620 colon = test system: SW-620 colon
LOX IMVI melanoma = test system: LOX IMVI melanoma
COLO 205 colon = test system: COLO 205 colon
HCC-2998 colon = test system: HCC-2998 colon
K-562 leukemia = test system: K-562 leukemia
HL-60(TB) leukemia = test system: HL-60(TB) leukemia
OVCAR-4 ovarian = test system: OVCAR-4 ovarian
ACHN renal = test system: ACHN renal
MDA-N = test system: MDA-N
T-47D breast = test system: T-47D breast
SNB-75 CNS = test system: SNB-75 CNS
CCRF-CEM leukemia = test system: CCRF-CEM leukemia
EKVX NSCLC = test system: EKVX NSCLC
BT-549 breast = test system: BT-549 breast
OVCAR-8 ovarian = test system: OVCAR-8 ovarian
SNB-19 CNS = test system: SNB-19 CNS
NCI/ADR-RES ovarian = test system: NCI/ADR-RES ovarian
HCT-116 colon = test system: HCT-116 colon
RPMI-8226 leukemia = test system: RPMI-8226 leukemia
HS 578T breast = test system: HS 578T breast
SK-OV-3 ovarian = test system: SK-OV-3 ovarian
PC-3 prostate = test system: PC-3 prostate
DU-145 prostate = test system: DU-145 prostate
SN12C renal = test system: SN12C renal

Measured: TGI

O=c1c2cc(O)c(O)cc2oc2cc(O)c(C3OC(CO)C(O)C(O)C3O)c(O)c12 (configuration not stated)
> 100 µM: SF-539 CNS | A549 NSCLC | TK-10 renal | U251 CNS | NCI-H226 lung | HOP-62 NSCLC | UO-31 renal | RXF 393 renal | OVCAR-5 ovarian | MOLT-4 leukemia | HCT-15 colon | UACC-62 melanoma | IGROV1 ovarian | 786-0 renal | MCF7 breast | MDA-MB-435 | NCI-H460 lung | MALME-3M melanoma | SR leukemia | OVCAR-3 ovarian | SK-MEL-2 melanoma | CAKI-1 renal | NCI-H522 lung | UACC-257 melanoma | HOP-92 NSCLC | NCI-H23 lung | M14 melanoma | SF-268 CNS | HT29 colon | SK-MEL-28 melanoma | KM12 colon | SF-295 CNS | SK-MEL-5 melanoma | MDA-MB-231 breast | A498 renal | SW-620 colon | LOX IMVI melanoma | COLO 205 colon | HCC-2998 colon | K-562 leukemia | HL-60(TB) leukemia | OVCAR-4 ovarian | ACHN renal | MDA-N | T-47D breast | SNB-75 CNS | CCRF-CEM leukemia | EKVX NSCLC | BT-549 breast | OVCAR-8 ovarian | SNB-19 CNS | NCI/ADR-RES ovarian | HCT-116 colon | RPMI-8226 leukemia | HS 578T breast | SK-OV-3 ovarian | PC-3 prostate

O=C(NNC(=O)c1ccccc1O)c1ccco1
> 100 µM: SF-539 CNS | A549 NSCLC | TK-10 renal | U251 CNS | NCI-H226 lung | HOP-62 NSCLC | UO-31 renal | RXF 393 renal | OVCAR-5 ovarian | MOLT-4 leukemia | HCT-15 colon | UACC-62 melanoma | IGROV1 ovarian | 786-0 renal | MCF7 breast | MDA-MB-435 | NCI-H460 lung | MALME-3M melanoma | SR leukemia | OVCAR-3 ovarian | SK-MEL-2 melanoma | CAKI-1 renal | NCI-H522 lung | UACC-257 melanoma | M14 melanoma | SF-268 CNS | HT29 colon | SK-MEL-28 melanoma | KM12 colon | SF-295 CNS | SK-MEL-5 melanoma | MDA-MB-231 breast | A498 renal | SW-620 colon | LOX IMVI melanoma | COLO 205 colon | K-562 leukemia | HL-60(TB) leukemia | OVCAR-4 ovarian | MDA-N | T-47D breast | SNB-75 CNS | CCRF-CEM leukemia | EKVX NSCLC | BT-549 breast | OVCAR-8 ovarian | SNB-19 CNS | DU-145 prostate | NCI/ADR-RES ovarian | HCT-116 colon | SN12C renal | RPMI-8226 leukemia | HS 578T breast | SK-OV-3 ovarian | PC-3 prostate
